# From patent US9476099B2 (TRUSTEES OF DARTMOUTH COLLEGE, priority 2012, dated 2016)
# System: gene promoters in NT2/D1-R1 control and DNMT3B knockdown cells
# Experiment: Genome-wide promoter methylation analysis, HumanMethylation27 BeadChip (Table 15)
# Type: cell-based, human
# Details: sh-3b + 5aza
# Experimental: DNA methylation analysis was performed in samples in triplicate using the […] […] assay with the HumanMethylation27 BeadChip ([…]) and the BeadChip was scanned on the BeadArray Reader ([…]), according to the manufacturer's instructions. Raw data was normalized and analyzed with Genome Studio software ([…]). The HumanMethylation27 BeadChip assays 27,578 CpGs covering more than 14,000 genes, mostly from promoter regions. […] Hierarchical clustering was performed as stated above. HumanMethylation27 BeadChip data and gene expression microarray data were submitted to NCBI GEO.
smiles,measurement,value
Nc1ncn([C@H]2C[C@H](O)[C@@H](CO)O2)c(=O)n1 [5aza],ABCC1 cg20158248 promoter methylation Mean,0.458
same,ACP1 cg27226618 promoter methylation Mean,0.490
same,ADCY4 cg16761581 promoter methylation Mean,0.297
same,ADRA2A cg26926521 promoter methylation Mean,0.682
same,ALDH1A3 cg19224278 promoter methylation Mean,0.310
same,ALKBH4 cg07404418 promoter methylation Mean,0.312
same,ALX4 cg04549333 promoter methylation Mean,0.880
same,ALX4 cg04970352 promoter methylation Mean,0.645
same,ALX4 cg19358442 promoter methylation Mean,0.834
same,ANKRD13C cg19342782 promoter methylation Mean,0.372
same,ANKRD45 cg15883716 promoter methylation Mean,0.793
same,APC cg16970232 promoter methylation Mean,0.269
same,BLOC1S2 cg26610808 promoter methylation Mean,0.526
same,BTBD5 cg00660989 promoter methylation Mean,0.214
same,BTNL8 cg24024214 promoter methylation Mean,0.781
same,C1QL1 cg13818573 promoter methylation Mean,0.255
same,C1orf188 cg15731815 promoter methylation Mean,0.321
same,C10orf107 cg16063112 promoter methylation Mean,0.230
same,C14orf173 cg24404909 promoter methylation Mean,0.248
same,C16orf60 cg17858663 promoter methylation Mean,0.177
same,C19orf4 cg07379574 promoter methylation Mean,0.733
same,C19orf22 cg18022193 promoter methylation Mean,0.180
same,CAMK1G cg27337148 promoter methylation Mean,0.715
same,CD58 cg21039631 promoter methylation Mean,0.325
same,CDKN2B cg04675937 promoter methylation Mean,0.167
same,CDKN2B cg08390209 promoter methylation Mean,0.150
same,CDX1 cg15452204 promoter methylation Mean,0.424
same,CEACAM4 cg10237469 promoter methylation Mean,0.430
same,CEACAM7 cg19623751 promoter methylation Mean,0.616
same,CGI-38 cg13067215 promoter methylation Mean,0.274
same,CHD5 cg00282347 promoter methylation Mean,0.682
same,CHMP2A cg14042128 promoter methylation Mean,0.354
same,COL11A1 cg12884406 promoter methylation Mean,0.331
same,COPS7B cg05422352 promoter methylation Mean,0.338
same,CRSP7 cg24459023 promoter methylation Mean,0.268
same,CSPG3 cg06952310 promoter methylation Mean,0.350
same,CSTF2T cg06712026 promoter methylation Mean,0.277
same,CTAGE1 cg02847216 promoter methylation Mean,0.727
same,CUL3 cg09509863 promoter methylation Mean,0.309
same,CYP4F12 cg25813714 promoter methylation Mean,0.721
same,DCTD cg14892066 promoter methylation Mean,0.171
same,DDEF2 cg22190705 promoter methylation Mean,0.187
same,DEFB118 cg03014957 promoter methylation Mean,0.548
same,DNASE2 cg07955356 promoter methylation Mean,0.207
same,DPH1 cg11516377 promoter methylation Mean,0.319
same,DYRK1B cg18851831 promoter methylation Mean,0.820
same,EIF2B3 cg16604218 promoter methylation Mean,0.360
same,ELSPBP1 cg19404979 promoter methylation Mean,0.406
same,ENOSF1 cg16112050 promoter methylation Mean,0.724
same,EPN3 cg24006361 promoter methylation Mean,0.739
same,EREG cg19308222 promoter methylation Mean,0.252
same,FAM111B cg13864937 promoter methylation Mean,0.366
same,FLJ10726 cg14145762 promoter methylation Mean,0.292
same,FLJ11200 cg09001953 promoter methylation Mean,0.335
same,FLJ23514 cg16404106 promoter methylation Mean,0.436
same,FLRT3 cg23127998 promoter methylation Mean,0.249
same,FLT3LG cg01667384 promoter methylation Mean,0.179
same,FXYD7 cg22392666 promoter methylation Mean,0.720
same,G10 cg02798801 promoter methylation Mean,0.349
same,GABRB2 cg16509658 promoter methylation Mean,0.176
same,GALNT4 cg16606638 promoter methylation Mean,0.245
same,GAS8 cg03634997 promoter methylation Mean,0.814
same,GBX2 cg23095584 promoter methylation Mean,0.268
same,GNAS cg27661264 promoter methylation Mean,0.334
same,GRB10 cg26163537 promoter methylation Mean,0.310
same,GUP1 cg24938727 promoter methylation Mean,0.441
same,HACE1 cg23047681 promoter methylation Mean,0.156
same,HGF cg06745740 promoter methylation Mean,0.404
same,HNRNPG-T cg22062068 promoter methylation Mean,0.650
same,HOXB4 cg25145670 promoter methylation Mean,0.311
same,HRASLS cg08376864 promoter methylation Mean,0.309
same,HYPK cg00480356 promoter methylation Mean,0.630
same,ICAM1 cg08607082 promoter methylation Mean,0.149
same,IFI16 cg07463059 promoter methylation Mean,0.386
same,IFI44 cg07107453 promoter methylation Mean,0.330
same,IFNA2 cg13235447 promoter methylation Mean,0.480
same,IGF2AS cg20792294 promoter methylation Mean,0.211
same,IGFBP5 cg19008649 promoter methylation Mean,0.264
same,IGSF9 cg19111262 promoter methylation Mean,0.576
same,IHH cg17178336 promoter methylation Mean,0.504
same,IL2RG cg01361446 promoter methylation Mean,0.834
same,IL18 cg11304234 promoter methylation Mean,0.478
same,INPP5B cg10784030 promoter methylation Mean,0.251
same,ITGB3BP cg18464559 promoter methylation Mean,0.121
same,KA21 cg23776012 promoter methylation Mean,0.410
same,KCNA3 cg03483626 promoter methylation Mean,0.208
same,KCNAB3 cg14918082 promoter methylation Mean,0.534
same,KCNB2 cg11754206 promoter methylation Mean,0.377
same,KCNK10 cg17671157 promoter methylation Mean,0.820
same,KLK7 cg19953406 promoter methylation Mean,0.680
same,LAMB1 cg10064162 promoter methylation Mean,0.295
same,LDHD cg24429836 promoter methylation Mean,0.510
same,LIG4 cg08216792 promoter methylation Mean,0.266
same,LYNX1 cg24046110 promoter methylation Mean,0.288
same,MC3R cg19226099 promoter methylation Mean,0.784
same,MGC26856 cg07684809 promoter methylation Mean,0.260
same,MLNR cg02620013 promoter methylation Mean,0.418
same,MPHOSPH6 cg16119274 promoter methylation Mean,0.280
same,MSX1 cg03199651 promoter methylation Mean,0.204
same,MYOD1 cg24322623 promoter methylation Mean,0.650
same,NCKIPSD cg04244987 promoter methylation Mean,0.242
same,NDP cg11614809 promoter methylation Mean,0.579
same,NEFH cg16042149 promoter methylation Mean,0.776
same,NEIL2 cg14329976 promoter methylation Mean,0.226
same,NME5 cg13707560 promoter methylation Mean,0.911
same,NME5 cg25507001 promoter methylation Mean,0.671
same,NOC3L cg07270175 promoter methylation Mean,0.464
same,NOX4 cg17063929 promoter methylation Mean,0.575
same,NPAS1 cg09628601 promoter methylation Mean,0.303
same,NRXN1 cg10917619 promoter methylation Mean,0.594
same,OR1N1 cg14598387 promoter methylation Mean,0.339
same,OR10J1 cg15700197 promoter methylation Mean,0.444
same,PACS1 cg01663295 promoter methylation Mean,0.329
same,PCDHB13 cg14592099 promoter methylation Mean,0.423
same,PCDHB13 cg24435562 promoter methylation Mean,0.273
same,PCDHGA12 cg11647681 promoter methylation Mean,0.623
same,PCGF5 cg17001035 promoter methylation Mean,0.664
same,PEPD cg06546607 promoter methylation Mean,0.229
same,PEX5L cg02430692 promoter methylation Mean,0.322
same,PI3 cg02442161 promoter methylation Mean,0.625
same,PIGL cg05310071 promoter methylation Mean,0.231
same,POU3F3 cg20291049 promoter methylation Mean,0.268
same,POU4F2 cg24199834 promoter methylation Mean,0.231
same,PTCH2 cg15329642 promoter methylation Mean,0.576
same,PTPN5 cg17233601 promoter methylation Mean,0.498
same,RASGEF1A cg07871503 promoter methylation Mean,0.574
same,RBPSUHL cg21835643 promoter methylation Mean,0.665
same,REM1 cg12153542 promoter methylation Mean,0.456
same,REM1 cg26299767 promoter methylation Mean,0.440
same,RLN3R1 cg12238343 promoter methylation Mean,0.451
same,RPL39L cg07441272 promoter methylation Mean,0.505
same,RRM2B cg07125123 promoter methylation Mean,0.288
same,RYR1 cg05471297 promoter methylation Mean,0.272
same,S100A12 cg02813121 promoter methylation Mean,0.719
same,SCUBE2 cg01081263 promoter methylation Mean,0.505
same,SCUBE2 cg19237879 promoter methylation Mean,0.493
same,SEMA3E cg08274234 promoter methylation Mean,0.207
same,SEMA6C cg01958916 promoter methylation Mean,0.255
same,SEPN1 cg21187265 promoter methylation Mean,0.381
